Measurements: patent publication US10093628B2, “Competitive PPAR-gamma antagonists” (FRAUNHOFER-GESELLSCHAFT ZUR FÖRDERUNG DER ANGEWANDTEN …, priority 2014, dated 2018)
Each block holds one molecule with its values, some of them ahead of it.

How the values were obtained:
HEK293T cells [1] = assay: Cell viability, MTT assay, HEK293T cells; type: cell-based, human; details: 24 h
Method: (§1) HuT-78 cells, Jurkat T cells and HEK293T cells, were seeded in 96-well plates at a density of 5×10^4 cells per well and cultured overnight as described above to allow attachment of the HEK293T cells. […] As control, DMSO alone was used. After 24 h stimulation, 3-(4, 5-dimethylthiazol-2-yl)-2, 5-diphenyltetrazolium bromide (MTT) solution (5 mg ml-1 in phosphate buffered saline (PBS)) was added and the cells were incubated for two more hours at 37° C. (Mosmann, 1983). Afterwards, the cells were lysed with MTT lysis buffer. Following cell lysis, cell viability was measured at an absorbance of 560 nm in a Mithras LB940 multimode reader. The cell viability studies using a 96-well plate format were performed in octet.

HEK293T cells [2] = assay: Intracellular accumulation by LC-MS/MS, HEK293T cells; type: in vitro ADME, human
From the text: (§2) Accumulation was expressed as a percentage of the ratio of intracellular to extracellular concentration (I/E).

HuT-78 cells [3] = assay: Cell viability, MTT assay, HuT-78 cells; type: cell-based, human
Method: as §1

HuT-78 cells [4] = assay: Intracellular accumulation by LC-MS/MS, HuT-78 cells; type: in vitro ADME, human
From the text: as §2

Jurkat T cells [5] = assay: Intracellular accumulation by LC-MS/MS, Jurkat T cells; type: in vitro ADME
From the text: as §2

PPARγ [6] = molecular target: T1, PPARγ (Homo sapiens, UniProt P37231); assay: PPARγ-dependent transactivation assay in HEK293T cells; type: cell-based; set-up: the vector pFA-PPARγ-LBD-GAL4-DBD encoding the hybrid protein PPARγ-LBD-GAL4-DBD; expressed in transfected cells; host or cells: HEK293T cells; (transient transfection); details: for inhibition of the rosiglitazone-induced transactivation of PPARγ: 1 or 10 μM compound with 0.1-10 μM rosiglitazone; for antagonistic effects on the time-course of the response to agonist stimulation: 10 μM compound, 1 μM rosiglitazone
T1 sequence (P37231 238-503 limits assumed): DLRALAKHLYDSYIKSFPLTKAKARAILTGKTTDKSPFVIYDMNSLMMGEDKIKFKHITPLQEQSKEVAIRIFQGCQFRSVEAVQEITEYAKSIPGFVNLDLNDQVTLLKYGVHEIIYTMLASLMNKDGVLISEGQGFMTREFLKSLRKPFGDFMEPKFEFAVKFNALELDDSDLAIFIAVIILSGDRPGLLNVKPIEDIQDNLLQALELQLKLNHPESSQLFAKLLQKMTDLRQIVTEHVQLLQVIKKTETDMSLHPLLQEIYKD
Method: For the PPARγ-dependent transactivation assay, 1×10^4 HEK293T cells per well were seeded in 96-well plates and cultured overnight as described above to allow attachment of the HEK293T cells. The next day, the HEK293T cells were transiently transfected using the JetPRIME™ transfection reagent (PEQLAB Biotechnologie GmbH, Erlangen, Germany), as described by the manufacturer, with 0.01 μg per well pFA-PPARγ-LBD-GAL4-DBD, kindly provided by Prof. Dr. Manfred Schubert-Zsilavecz (Institute of Pharmaceutical Chemistry, Department of Biochemistry, Chemistry and Pharmacy, Goethe-University Frankfurt am Main, Germany), 0.09 μg per well pFR-Luc (Stratagene, La Jolla, USA) and 0.0005 μg per well pRL-CMV (Promega GmbH, Mannheim, Germany). After 4 h, the transfection medium was replaced and the HEK293T cells were cultured in fresh growth medium for another 24 h. For the transient transfection of 1×10^6 HuT-78 cells and Jurkat T cells per well, the SuperFect™ transfection reagent (QIAGEN GmbH, Hilden, Germany) was used as described by the producer with 0.2 μg per well pFA-PPARγ-LBD-GAL4-DBD, 0.8 μg per well pFR-Luc and 0.05 μg per well pRL-CMV. After 24 h, 1 ml fresh growth medium was added and the cells were cultured for another 48 h. The PPARγ-dependent transactivation assay in HEK293T cells using a 96-well plate format was performed in quadruple and in HuT-78 cells and Jurkat T cells using a 12-well plate format in triplicate.
(§3) The PPARγ-dependent transactivation assay is based on the vector pFA-PPARγ-LBD-GAL4-DBD encoding the hybrid protein PPARγ-LBD-GAL4-DBD and the reporter vector pFR-Luc, carrying a GAL4-responsive element in front of the Firefly luciferase gene. These two vectors were co-transfected, as described above, in combination with the control vector pRL-CMV, encoding Renilla luciferase, to normalize Firefly luciferase activity for transfection efficiency. […] Transactivation was analysed using a 96-well plate format in a Mithras LB940 multimode reader (Berthold Technologies, Bad Wildbad, Germany). The IC50 value for MTTB was determined by fitting the data to a sigmoidal dose-response curve using the GraphPad Software Prism (La Jolla, USA).
Firefly luciferase luminescence values and control Renilla luciferase luminescence values were determined in each sample. The ratios of Firefly to Renilla luciferase luminescence were used to normalize luciferase activity values.

Jurkat T cells [7] = assay: Cell viability, MTT assay, Jurkat T cells; type: cell-based
Method: as §1

PPARγ [8] = molecular target: T1, PPARγ; assay: PPARγ-dependent transactivation assay in Jurkat T cells; type: cell-based; set-up: the vector pFA-PPARγ-LBD-GAL4-DBD encoding the hybrid protein PPARγ-LBD-GAL4-DBD; expressed in transfected cells; host or cells: HEK293T cells; Jurkat T cells (transient transfection); details: for inhibition of the rosiglitazone-induced transactivation of PPARγ / agonistic effects (transactivation of PPARγ by the compound alone): 24 h; for inhibition of the rosiglitazone-induced transactivation of PPARγ: 1 or 10 μM compound with 0.1-10 μM rosiglitazone
Method: as §3, with “Dr. […] Schubert-Zsilavecz (Institute of Pharmaceutical Chemistry, Department of Biochemistry, Chemistry and Pharmacy, Goethe-University Frankfurt am Main, Germany), 0.09 μg per well pFR-Luc (Stratagene, La Jolla, USA) and 0.0005 μg per well pRL-CMV (Promega GmbH, Mannheim, Germany). After 4 h, the transfection medium was replaced and the HEK293T cells were cultured in fresh growth medium for another 24 h. […] After 24 h, 1 ml fresh growth medium was added and the cells were cultured for another 48 h. The PPARγ-dependent transactivation assay in HEK293T cells using a 96-well plate format was performed in quadruple and in HuT-78 cells and Jurkat T cells using a 12-well plate format in triplicate. The PPARγ-dependent” for “The PPARγ-dependent”

[9] = HEK293T cells, 24 h, compound alone

uptake, fold higher than of GW9662 (HEK293T cells [2]): 10 fold
intracellular accumulation (intracellular as percentage of extracellular concentration) (HEK293T cells [2]; 10 μM, after 24 h): approximately 25%
intracellular accumulation, fold higher as compared to GW9662 (HuT-78 cells [4]): approximately 100 fold
intracellular accumulation (intracellular as percentage of extracellular concentration) (HuT-78 cells [4]; 10 μM, after 24 h): approximately 10%
intracellular accumulation, fold higher as compared to GW9662 (Jurkat T cells [5]): approximately 100 fold
intracellular accumulation (intracellular as percentage of extracellular concentration) (Jurkat T cells [5]; 10 μM, after 24 h): approximately 10%
IC50 (PPARγ [6]): 4.3 µM
inhibition of the rosiglitazone-induced transactivation of PPARγ (PPARγ [6]; HEK293T cells, 24 h): dose-dependent inhibition
agonistic effects (transactivation of PPARγ by the compound alone) (PPARγ [6]; [9]): no agonistic effect
inhibition of the rosiglitazone-induced transactivation of PPARγ (PPARγ [8]): dose-dependent inhibition
agonistic effects (transactivation of PPARγ by the compound alone) (PPARγ [8]; compound alone): no agonistic effect
Structure (SMILES): CCCC/C(=C\c1cc(OCc2ccc3nc(C(F)(F)F)cc(OC)c3c2)ccc1OCc1ccc(C(F)(F)F)cc1)C(=O)O [MTTB, (E)-2-(5-((4-methoxy-2-(trifluoromethyl)quinolin-6-yl)methoxy)-2-((4-(trifluoromethyl)benzyl)oxy)-benzylidene) hexanoic acid]
concentrations without cytotoxic effects / loss of viability (HEK293T cells [1]): up to 10 μM
cytotoxicity in contrast to GW9662 (HuT-78 cells [3]): less cytotoxicity
concentrations without cytotoxic effects (HuT-78 cells [3]; MTT, 24 h): up to 10 μM
cytotoxicity in contrast to GW9662 (Jurkat T cells [7]): less cytotoxicity
concentrations without cytotoxic effects (Jurkat T cells [7]; MTT, 24 h): up to 10 μM

intracellular accumulation, fold lower compared to MTTB (HEK293T cells [2]; 10 μM): 10 fold
intracellular accumulation, fold less than that of MTTB (HuT-78 cells [4]; 10 μM): about 100 fold
intracellular accumulation, fold less than that of MTTB (Jurkat T cells [5]; 10 μM): about 100 fold
inhibition of the rosiglitazone-induced transactivation of PPARγ (PPARγ [6]; HEK293T cells, 24 h): full antagonism
agonistic effects (transactivation of PPARγ by the compound alone) (PPARγ [6]; [9]): surprisingly high agonistic effects
inhibition of the rosiglitazone-induced transactivation of PPARγ (PPARγ [8]): full antagonism
agonistic effects (transactivation of PPARγ by the compound alone) (PPARγ [8]; compound alone): surprisingly high agonistic effects
PPARγ transactivation by the compound alone (PPARγ [8]; compound alone, dose-independent): approximately 3 fold
Structure (SMILES): O=C(Nc1ccccc1)c1cc([N+](=O)[O-])ccc1Cl [GW9662, 2-chloro-5-nitrobenzanilide]
concentrations without cytotoxic effects / loss of viability (HEK293T cells [1]): ≤ 30 µM
concentrations at which clearly cytotoxic (HuT-78 cells [3]; MTT, 24 h): above 20 μM
antagonistic effects on the time-course of the response to agonist stimulation (PPARγ [6]; HEK293T cells): inhibited the time-course of the response to agonist
concentrations at which clearly cytotoxic (Jurkat T cells [7]; MTT, 24 h): > 30 µM

antagonistic effects on the time-course of the response to agonist stimulation (PPARγ [6]; HEK293T cells): non-existent antagonistic effects
agonistic effects (transactivation of PPARγ by the compound alone) (PPARγ [6]; [9]): no agonistic effects
Structure (SMILES): CC(C)C[C@H](NC(=O)OCC1c2ccccc2-c2ccccc21)C(=O)O [FMOC-L-leucine, N-(9-fluorenylmethoxycarbonyl)-L-leucine]

antagonistic effects on the time-course of the response to agonist stimulation (PPARγ [6]; HEK293T cells): non-existent antagonistic effects
concentrations that transactivated PPARγ (PPARγ [6]; [9]): above 1 μM
Structure (SMILES): O=C1NC(=O)C(Cc2ccc3cc(OCc4ccccc4F)ccc3c2)S1 (centres unmarked) [MCC-555, netoglitazone]
